Some test systems named below: BT-549 breast; RPMI-8226 leukemia; TK-10 renal; DU-145 prostate; A498 renal; HCT-116 colon; K-562 leukemia; UACC-257 melanoma; HL-60(TB) leukemia; SNB-19 CNS; OVCAR-4 ovarian.
What all share (assay): NCI anticancer screen, dose series, 48 h

Structures are written as SMILES.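 1) Cells in 96-well plates. 2) Compound, 48 h, 5 concentrations. 3) Linear interpolation between surrounding doses. 4) Unreached endpoint = highest concentration. TGI: total growth inhibition.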

Regarding `Oc1ccc(Cl)cc1-c1cc(-c2ccccc2)nc(NCN2CCCCC2)n1`, the TGI with BT-549 breast, with RPMI-8226 leukemia, in the assay with TK-10 renal, in the assay on DU-145 prostate, with A498 renal and in the assay on HCT-116 colon was over 100 µM each time. Also, the TGI in the assay on K-562 leukemia, in the assay with UACC-257 melanoma, in the assay on HL-60(TB) leukemia, in the assay with SNB-19 CNS and with OVCAR-4 ovarian was over 100 µM each time.

For `C(=N\Nc1ccc(-c2nc3ccccc3[nH]2)cc1)/c1c(-c2ccc(Cc3ccccc3)cc2)[nH]c2ccccc12`, the TGI in the assay on BT-549 breast is 38 µM; in the assay with RPMI-8226 leukemia, over 32.5 µM; in the assay on TK-10 renal, over 95.4 µM; in the assay with DU-145 prostate it was over 80.8 µM; with A498 renal, 33.3 µM; in the assay with HCT-116 colon it was over 68.4 µM. Also, the TGI was over 100 µM in the assay with K-562 leukemia; over 89.1 µM in the assay with UACC-257 melanoma; over 63.5 µM in the assay on HL-60(TB) leukemia; over 77.3 µM with SNB-19 CNS; over 93.6 µM with OVCAR-4 ovarian.

As for `CSc1c(C#N)c(N)nc2c(N=Nc3ccc(Br)cc3)c(N)nn12`, the TGI with BT-549 breast is 37.3 µM; in the assay on RPMI-8226 leukemia, 54.7 µM; in the assay with TK-10 renal, 29.7 µM; in the assay with DU-145 prostate it was 14.9 µM; in the assay with A498 renal, 52.9 µM; in the assay on HCT-116 colon it was 12.5 µM. Further, the TGI amounted to 21.4 µM in the assay with K-562 leukemia; 21.4 µM in the assay with UACC-257 melanoma; 9.1 µM in the assay with HL-60(TB) leukemia; 69.6 µM in the assay with SNB-19 CNS; 15.1 µM in the assay with OVCAR-4 ovarian.

As to `C=CCc1cc(-c2cc(CC=C)c(O)c(CN(CC)CC)c2)cc(CN(CC)CC)c1O`, the TGI was over 100 µM in the assay on BT-549 breast; over 88.1 µM in the assay on RPMI-8226 leukemia; over 100 µM in the assay on TK-10 renal; over 100 µM with DU-145 prostate; over 100 µM with A498 renal; 55.9 µM with HCT-116 colon. Moreover, the TGI in the assay on K-562 leukemia is over 100 µM; in the assay on UACC-257 melanoma, 68.5 µM; in the assay with HL-60(TB) leukemia, over 86.3 µM; in the assay on SNB-19 CNS, over 100 µM; in the assay on OVCAR-4 ovarian it was over 100 µM.

On to `CCOC(=O)C[n+]1cccc(C2(c3cc4ccccc4[nH]3)OCCO2)c1`, for which the TGI in the assay on BT-549 breast, with RPMI-8226 leukemia, in the assay with TK-10 renal, in the assay with DU-145 prostate, in the assay with A498 renal and with HCT-116 colon was over 100 µM each time. Further, the TGI with K-562 leukemia, in the assay on UACC-257 melanoma, in the assay on HL-60(TB) leukemia, in the assay on SNB-19 CNS and in the assay on OVCAR-4 ovarian was over 100 µM throughout.

As to `CCOC(=O)c1sc2nc(SC)nc3c2c1NCN3c1ccc(F)c(F)c1`, the TGI with BT-549 breast is over 66.5 µM; in the assay with RPMI-8226 leukemia, over 100 µM; with TK-10 renal it was 64.1 µM; in the assay with DU-145 prostate it was over 100 µM; in the assay with A498 renal, 35.6 µM; in the assay with HCT-116 colon it was 54.6 µM. The TGI in the assay with K-562 leukemia was over 100 µM; in the assay on UACC-257 melanoma it was over 100 µM; in the assay with HL-60(TB) leukemia, over 100 µM; in the assay with SNB-19 CNS, over 83.2 µM; in the assay on OVCAR-4 ovarian, 17.7 µM.

Regarding `C=C1C(=O)O[C@H]2[C@H]3O[C@@H](C[C@@H]12)[C@@]1(C)CC[C@H](O1)[C@H](C)CCC[C@H]3C`, the TGI with BT-549 breast was 2.17 µM; in the assay with RPMI-8226 leukemia, 2.35 µM; with TK-10 renal it was 2.98 µM; with DU-145 prostate, 2.86 µM; in the assay on A498 renal it was 3.17 µM; in the assay on HCT-116 colon it was 2.49 µM. Further, the TGI with K-562 leukemia turned out to be 3.59 µM; with UACC-257 melanoma, 3.41 µM; in the assay with HL-60(TB) leukemia, 1.27 µM; with SNB-19 CNS, 21.7 µM; in the assay on OVCAR-4 ovarian, 3.4 µM.

For the molecule `C=CC(OC(C)=O)c1ccc(OC(=O)C(C)C)c(OC)c1` (stereo unspecified), the TGI with BT-549 breast was found to be 16.4 µM; in the assay on RPMI-8226 leukemia, 4.28 µM; in the assay with TK-10 renal, 11.5 µM; in the assay on DU-145 prostate, 24.5 µM; in the assay on A498 renal, 31 µM; in the assay with HCT-116 colon, 22.5 µM. The TGI in the assay with K-562 leukemia was 11.6 µM; in the assay with UACC-257 melanoma, 23.5 µM; in the assay with HL-60(TB) leukemia, over 23.6 µM; in the assay on SNB-19 CNS, 24.6 µM; in the assay on OVCAR-4 ovarian, 16.2 µM.

As for `O=c1cc(NNc2cccc(F)c2)[nH]c(=O)[nH]1`, the TGI in the assay with BT-549 breast is over 100 µM; with RPMI-8226 leukemia it was 47.4 µM; in the assay with TK-10 renal, 27.2 µM; in the assay on DU-145 prostate it was over 100 µM; in the assay on A498 renal, over 100 µM; in the assay on HCT-116 colon, 31 µM. In addition, the TGI with K-562 leukemia is 84.4 µM; in the assay on UACC-257 melanoma it was 34.8 µM; in the assay on HL-60(TB) leukemia it was 44.6 µM; in the assay on SNB-19 CNS it was over 100 µM; with OVCAR-4 ovarian, over 100 µM.

Take `CCOC(=O)c1cc(I)c(-c2cc(C)no2)n1C`: the TGI with BT-549 breast, in the assay on RPMI-8226 leukemia, with TK-10 renal, with DU-145 prostate, in the assay with A498 renal and in the assay with HCT-116 colon was over 100 µM in each case. Further, the TGI in the assay with K-562 leukemia is over 100 µM; with UACC-257 melanoma it was over 100 µM; in the assay with HL-60(TB) leukemia, 74.5 µM; in the assay on SNB-19 CNS, over 100 µM; in the assay with OVCAR-4 ovarian, 75 µM.

Turning to `COC(=O)/C=C\C(C#N)(C#N)N=Cc1ccccc1`, the TGI with BT-549 breast was found to be 10.8 µM; with RPMI-8226 leukemia it was 2.88 µM; with TK-10 renal, 5.54 µM; in the assay with DU-145 prostate, 31.4 µM; in the assay with A498 renal, 33.1 µM; in the assay with HCT-116 colon, 3.4 µM. Further, the TGI was 15 µM with K-562 leukemia; 12.8 µM with UACC-257 melanoma; 6.42 µM with HL-60(TB) leukemia; over 58.4 µM with SNB-19 CNS; 13.5 µM in the assay with OVCAR-4 ovarian.

Source of the values: PubChem BioAssay (NCI).
